# Measured values published in patent US9695155B2, “Herbicidal substituted pyrimidinyloxy benzene compounds” (E. I. DU PONT DE NEMOURS AND COMPANY, priority 2013, dated 2017).
# What was measured:
# [1] = system: rice; test: Test C flooded paddy test; assay type: in vivo, Oryza sativa; conditions: Flood, scale 0 to 100 (0 no effect, 100 complete control), 13 to 15 days
# Procedure, shortened: (§1)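 Pots were flooded to 3 cm above the soil surface at treatment, compound applied directly to the paddy water, and that depth held throughout. Plants were kept in a greenhouse for 13 to 15 days, then visually rated against untreated controls.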
# [2] = system: ducksalad; test: Test C flooded paddy test; assay type: in vivo, Heteranthera limosa; conditions: Flood, scale 0 to 100 (0 no effect, 100 complete control), 13 to 15 days
# Procedure, shortened: as §1
# [3] = system: barnyardgrass; test: Test C flooded paddy test; assay type: in vivo, Echinochloa crus-galli; conditions: Flood, scale 0 to 100 (0 no effect, 100 complete control), 13 to 15 days
# Procedure, shortened: as §1
# [4] = system: ragweed; test: Test A preemergence; assay type: in vivo, Ambrosia elatior
# Procedure, shortened: (§2)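 Pre- and postemergence greenhouse screen. Soil: loam + sand. Spray carrier: solvent mixture, non-phytotoxic, with surfactant. Post timing at 1–2 leaves, height 2–10 cm. Readout: visual injury on a 0–100 scale roughly 10 days after application, untreated plants as reference.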
# [5] = system: kochia; test: Test A postemergence; assay type: in vivo, Kochia scoparia
# Procedure, shortened: as §2
# [6] = system: Italian ryegrass; test: Test A postemergence; assay type: in vivo, Lolium multiflorum
# Procedure, shortened: as §2
# [7] = 125 g ai/ha, 0 to 100 scale where 0 is no effect and 100 is complete control
# [8] = 500 g ai/ha, 0 to 100 scale, 0 no effect, 100 complete control, approx. 10 days
# [9] = 500 g ai/ha, 0 to 100 scale where 0 is no effect and 100 is complete control
# [10] = 31 g ai/ha, 0 to 100 scale where 0 is no effect and 100 is complete control, visual, approximately 10 days
# [11] = 31 g ai/ha, 0 to 100 scale, 0 no effect, 100 complete control
# [12] = 125 g ai/ha, 0 to 100 scale, 0 no effect, 100 complete control
# [13] = 1000 g ai/ha, 0 to 100 scale, 0 no effect, 100 complete control, approx. 10 days
# [14] = 1000 g ai/ha, 0 to 100 scale, 0 no effect, 100 complete control
Compound,"Plant response rating, Rice ([1]; 31 g ai/ha)","Plant response rating, Rice ([1]; 62 g ai/ha)","Plant response rating, Rice ([1]; 125 g ai/ha)","Plant response rating, Rice ([1]; 250 g ai/ha)","Plant response rating, Ducksalad ([2]; 31 g ai/ha)","Plant response rating, Ducksalad ([2]; 62 g ai/ha)","Plant response rating, Ducksalad ([2]; 125 g ai/ha)","Plant response rating, Ducksalad ([2]; 250 g ai/ha)","Plant response rating, Barnyardgrass ([3]; 31 g ai/ha)","Plant response rating, Barnyardgrass ([3]; 62 g ai/ha)","Plant response rating, Barnyardgrass ([3]; 125 g ai/ha)","Plant response rating, Barnyardgrass ([3]; 250 g ai/ha)","Plant response rating, Ragweed [4, 7]","Plant response rating, Kochia [5, 9]","Plant response rating, Ryegrass, Italian [6, 9]","Ragweed plant response rating [4, 9]",other results
N#Cc1cccc(Oc2ncc(F)cn2)c1-n1cc(Br)cn1 [Compound 62],15,15,15,25,30,70,85,100,0,0,0,40,–,–,–,–,–
FCc1cccc(Oc2ncc(Cl)cn2)c1-n1cc(Br)cn1 [Compound 83],–,–,–,–,–,–,–,–,–,–,–,–,20,100,80,–,"Ragweed plant response rating [4, 8]: 50; Plant response rating, Kochia [5, 7]: 100; Plant response rating, Ryegrass, Italian [6, 7]: 50"
Fc1cccc(Oc2ncc(Cl)cn2)c1-n1cc(OCC(F)(F)F)cn1 [Compound 270],0,0,0,30,20,60,80,95,0,30,45,60,–,–,–,–,"Plant response rating, Ragweed [4, 10]: 0; Ragweed plant response rating (0 to 100 scale) ([4]; 125 g ai/ha): 20; Plant response rating, Kochia [5, 11]: 60; Plant response rating, Kochia [5, 12]: 70; Plant response rating, Ryegrass, Italian [6, 11]: 0; Plant response rating, Ryegrass, Italian [6, 12]: 30"
"FC(F)(F)Sc1cnn(-c2ccccc2Oc2ncc(Cl)cn2)c1 [Compound 132, 5-chloro-2-[2-[4-(trifluoromethylthio)-1H-pyrazol-1-yl]phenoxy]pyrimidine]",–,–,–,–,–,–,–,–,–,–,–,–,0,100,60,10,"Kochia plant response rating [5, 7]: 90; Ryegrass, Italian plant response rating [6, 7]: 10"
FCc1cccc(Oc2ncc(Br)cn2)c1-n1cc(C(F)(F)F)cn1 [Compound 120],0,0,15,60,0,40,80,90,0,0,60,85,0,–,–,–,"Ragweed plant response rating (0 to 100 scale) ([4]; 31 g ai/ha): 0; Plant response rating, Kochia [5, 11]: 60; Plant response rating, Kochia [5, 7]: 90; Plant response rating, Ryegrass, Italian [6, 11]: 0"
N#Cc1cnn(-c2c(Oc3ncc(Cl)cn3)cccc2C(F)F)c1 [Compound 236],0,0,10,20,0,40,80,90,0,0,0,20,–,–,–,–,–
CCOc1cn(-c2c(Br)cccc2Oc2ncc(Cl)cn2)nn1 [Compound 84],–,–,–,–,–,–,–,–,–,–,–,–,10,100,80,–,"Ragweed plant response rating [4, 8]: 40; Plant response rating, Kochia [5, 7]: 100; Plant response rating, Ryegrass, Italian [6, 7]: 50"
Clc1cnc(Oc2cccc(Br)c2-n2cc(Br)nn2)nc1 [Compound 129],–,–,–,–,–,–,–,–,–,–,–,–,30,100,90,80,"Kochia plant response rating [5, 7]: 100; Ryegrass, Italian plant response rating [6, 7]: 50"
CCCOc1cnn(-c2c(C#N)cccc2Oc2ncc(Cl)cn2)c1 [Compound 150],0,0,0,0,0,40,70,75,0,0,0,0,30,100,100,70,"Kochia plant response rating [5, 7]: 70; Ryegrass, Italian plant response rating [6, 7]: 40"
Clc1cnc(Oc2cccc(Br)c2-n2cc(Br)cn2)nc1 [Compound 65],0,0,0,0,0,30,85,85,0,0,0,0,–,–,–,–,–
COc1cnn(-c2c(C#N)cccc2Oc2ncc(Cl)cn2)c1 [Compound 137],–,–,–,–,–,–,–,–,–,–,–,–,30,100,80,60,"Kochia plant response rating [5, 7]: 80; Ryegrass, Italian plant response rating [6, 7]: 20"
Fc1cccc(Oc2ncc(Cl)cn2)c1-n1cc(C2CC2)nn1 [Compound 155],–,–,–,–,–,–,–,–,–,–,–,–,–,–,–,–,"Ragweed plant response rating [4, 13]: 90; Plant response rating, Kochia [5, 14]: 100; Plant response rating, Ryegrass, Italian [6, 14]: 100"
"N#Cc1cccc(Oc2ncc(Cl)cn2)c1-n1cnc(C(F)(F)F)c1 [Compound 252, 3-[(5-chloro-2-pyrimidinyl)oxy]-2-[4-(trifluoromethyl)-1H-imidazol-1-yl]benzonitrile]",–,–,–,–,–,–,–,–,–,–,–,–,–,100,70,100,"Plant response rating, Ragweed [4, 10]: 20; Ragweed plant response rating (0 to 100 scale) ([4]; 125 g ai/ha): 70; Plant response rating, Kochia [5, 11]: 70; Plant response rating, Kochia [5, 12]: 100; Plant response rating, Ryegrass, Italian [6, 11]: 0; Plant response rating, Ryegrass, Italian [6, 12]: 40"
Cc1cnc(Oc2cccc(C#N)c2-n2cc(I)cn2)nc1 [Compound 136],–,–,–,–,–,–,–,–,–,–,–,–,80,100,90,100,"Kochia plant response rating [5, 7]: 70; Ryegrass, Italian plant response rating [6, 7]: 30"
FCc1cccc(Oc2ncc(F)cn2)c1-n1cc(C(F)(F)F)cn1 [Compound 118],–,–,–,–,–,–,–,–,–,–,–,–,90,–,–,–,"Ragweed plant response rating (0 to 100 scale) ([4]; 31 g ai/ha): 50; Plant response rating, Kochia [5, 11]: 60; Plant response rating, Kochia [5, 7]: 100; Plant response rating, Ryegrass, Italian [6, 11]: 20"
N#Cc1cccc(Oc2ncc(Cl)cn2)c1-n1cc(-n2ccc(C(F)(F)F)n2)cn1 [Compound 284],–,–,–,–,–,–,–,–,–,–,–,–,–,100,60,0,"Ragweed plant response rating (0 to 100 scale) ([4]; 125 g ai/ha): 0; Plant response rating, Kochia [5, 12]: 60; Plant response rating, Ryegrass, Italian [6, 12]: 20"
Clc1cnc(Oc2ccccc2-n2cc(Cl)cn2)nc1 [Compound 3],0,0,0,0,0,50,70,85,0,0,0,0,–,–,–,–,–
FCc1cn(-c2c(F)cccc2Oc2ncc(Cl)cn2)nn1 [Compound 154],–,–,–,–,–,–,–,–,–,–,–,–,–,–,–,–,"Ragweed plant response rating [4, 13]: 100; Plant response rating, Kochia [5, 14]: 100; Plant response rating, Ryegrass, Italian [6, 14]: 90"
